From patent publication US9232785B2, “Method for reducing sunburn damage in plants” (BASF SE, priority 2009, dated 2016)

Experiments:
[1] = tested on: sunburn injury on barley cultivar Finita; assay: Preventive action on winter barley against sunburn injury, field trial, two timings (Example 5); format: in vivo; conditions: applied at BBCH 53, Actives A & B 0.8 l/ha, UV Filter 2.0 l/ha, Surround 10 kg/ha, % destroyed leaf area
Procedure: The biological trial was conducted under field conditions in Germany. The barley cultivar […] was planted and grown under standard conditions with adequate supply of water and nutrients. At BBCH 53 0.8 l/ha of Actives A & B and 2.0 l/ha UV Filter A or B were applied. For comparison, the Surround® (commercially available from Engelhard Corp., wettable powder comprising 95 wt % kaolin) was applied at a rate of 10 kg/ha. The level of sunburn injury was evaluated 15 and 22 days after application (% estimation of destroyed leaf area).

[2] = tested on: sunburn injury on winter barley; assay: Preventive action on winter barley against sunburn injury, field trial (Example 3); format: in vivo; conditions: Germany, applied at BBCH 53, evaluated 22 days after application, 0 = as untreated control, 100 = no sunburn symptoms, UV filter 2 L/ha (500 g ai/ha), Actives A & B 0.8 & 0.8 L/ha (240 & 297 g ai/ha)
Procedure: As active substance a mixture of active substances was used called “Actives A & B”, which was prepared by mixing Active A and Active B. Active A was a fungicidal suspension concentrate comprising 6 wt % epoxiconazol, 20.8 wt % boscalid, 11.2-12.6 wt % fatty alcohol alkoxylate, C8-alkyl glucoside, and phenolsulfonic acid-formaldehyde-polycondensate sodium salt (commercially available pesticide formulation from BASF SE as Champion®). Active B a fungicidal suspoemulsion comprising 20.6 wt % fenpropimorph, 11 wt % pyraclostrobin, 4.1 wt % epoxiconazol, 20.5 wt % solvent naphtha, 11 wt % fatty alcohol ethoxylate and 4.8 wt % phenolsulfonic acid-formaldehyde-polycondensate sodium salt (commercially available pesticide formulation from BASF SE as Diamant®). UV Filter A and UV filter B were prepared as described in examples 1 and 2.
The biological trial was conducted under field conditions in Germany. […] The level of sunburn injury was evaluated 22 days after application (% estimation of destroyed leaf area).
The sunburn injury assessments were converted into efficacies. […] The expected efficacies of active compound mixtures were determined using Colby's formula [R. S. Colby, “Calculating synergistic and antagonistic responses of herbicide combinations”, Weeds 15, 20-22 (1967)] and compared with the observed efficacies.

Row | SMILES | % sunburn injury 15 days after application [1] [%] | % sunburn injury 22 days after application [1] [%] | Efficacy [2]
1 | COCCOCCOCCOCCOCCOCCOCCOC(=O)CCc1cc(-n2nc3ccccc3n2)c(O)c(C(C)(C)C)c1 [UV Filter B, 3-(3-Benzotriazol-2-yl-5-tert-butyl-4-hydroxyphenyl)-propiosäure-[Pluriol A350E]-ester] | 36 | 97 | 3
2 | COCCOCCOCCOCCOCCOCCOCCOC(=O)C(C#N)=C(c1ccccc1)c1ccccc1 [UV Filter A, 2-Cyano-3,3-diphenyl-acrylsäure-[Pluriol A350E]-ester] | 38 | 96 | 4
